Results as given in US20040204463A1, “N-aryl-2-oxazolidinone-5-carboxamides and their derivatives” (priority 2003, published 2004).
Converted amounts (≈) assume the structure as drawn. Counter-ions that a name gives are not always drawn. Like-named read-outs stand apart in the source and are kept apart here.

Assays:
SAUR 9213 = experiment: In vitro MIC by standard agar dilution method, SAUR 9213; format: cell-based, S. aureus; conditions: Staphylococcus aureus, read-out: SAUR 9213 MIC (Minimum Inhibitory Concentration)
Description: (§1) The oxazolidinone antibacterial agents of this invention have useful activity against a variety of organisms. The in vitro activity of compounds of this invention can be assessed by standard testing procedures such as the determination of minimum inhibitory concentration (MIC) by agar dilution as described in “Approved Standard. Methods for Dilution Antimicrobial Susceptibility Tests for Bacteria That Grow Aerobically”, 3rd. ed., published 1993 by the National Committee for Clinical Laboratory Standards, Villanova, Pa., USA.
(§2) The in vitro MICs of test compounds were determined by a standard agar dilution method. A stock drug solution of each analog was prepared in the preferred solvent, usually DMSO: H2O (1:3). Serial 2-fold dilutions of each sample are made using 1.0 ml aliquots of sterile distilled water. To each 1.0 ml aliquot of drug was added 9 ml of molten Mueller Hinton agar medium. The drug-supplemented agar was mixed, poured into 15×100 mm petri dishes, and allowed to solidify and dry prior to inoculation.
(§3) Vials of each of the test organisms are maintained frozen in the vapor phase of a liquid nitrogen freezer. Test cultures are grown overnight at 35° C. on the medium appropriate for the organism. Colonies are harvested with a sterile swab, and cell suspensions are prepared in Trypticase Soy broth (TSB) to equal the turbidity of a 0.5 McFarland standard. A 1:20 dilution of each suspension was made in TSB. The plates containing the drug supplemented agar are inoculated with a 0.001 ml drop of the cell suspension using a Steers replicator, yielding approximately 10^4 to 10^5 cells per spot. The plates are incubated overnight at 35° C.
(§4) Following incubation the Minimum Inhibitory Concentration (MIC μg/ml), the lowest concentration of drug that inhibits visible growth of the organism, was read and recorded.

SPNE 9912 = experiment: In vitro MIC by standard agar dilution method, SPNE 9912; format: cell-based; conditions: read-out: SPNE 9912 MIC (Minimum Inhibitory Concentration)
Description: as §1, §2, §3, §4

HINF 30063 = experiment: In vitro MIC by standard agar dilution method, HINF 30063; format: cell-based, H. influenzae; conditions: Haemophilus influenzae, read-out: HINF 30063 MIC (Minimum Inhibitory Concentration)
Description: as §1, §2, §3, §4

[1] = agar dilution, Mueller Hinton agar, incubated overnight at 35° C., lowest concentration that inhibits visible growth

| MIC (SAUR 9213; [1]) [µg/mL] | MIC (SPNE 9912; [1]) [µg/mL] | MIC (HINF 30063; [1]) [µg/mL] | SMILES | MIC (SAUR 9213) [µg/mL] | MIC (SPNE 9912) [µg/mL] | MIC (HINF 30063) [µg/mL] |
| --- | --- | --- | --- | --- | --- | --- |
|  |  |  | C#CCCCC(=O)N1CCN(c2ccc(N3C[C@H](CNC(C)=O)OC3=O)cc2F)CC1 [Compound 4, N-({(5S)-3-[3-Fluoro-4-(4-hex-5-ynoylpiperazin-1-yl)phenyl]-2-oxo-1,3-oxazolidin-5-yl}methyl)acetamide] | 4 (≈ 9.29 µM) | 1 (≈ 2.32 µM) | 64 (≈ 149 µM) |
| 2 (≈ 3.73 µM) | 1 (≈ 1.87 µM) | 16 (≈ 29.9 µM) | CC(=O)NC[C@H]1CN(c2ccc(N3CCN(C(=O)CCCC#Cc4cccc(CN)c4)CC3)c(F)c2)C(=O)O1 [Compound 6, N-({(5S)-3-[4-(4-{6-[3-(aminomethyl)phenyl]hex-5-ynoyl}piperazin-1-yl)-3-fluorophen-yl]-2-oxo-1,3-oxazolidin-5-yl}methyl)acetamide] |  |  |  |
| 4 (≈ 7.65 µM) | 1 (≈ 1.91 µM) | > 64 | CC(=O)NC[C@H]1CN(c2ccc(N3CCN(C(=O)CCCC#Cc4ccc(O)cc4)CC3)c(F)c2)C(=O)O1 [Compound 7, N-{[(5S)-3-(3-Fluoro-4-{4-[6-(4-hydroxyphenyl)hex-5-ynoyl]piperazin-1-yl}phenyl)-2-oxo-1,3-oxazolidin-5-yl]methyl}acetamide] |  |  |  |
| 4 (≈ 9.6 µM) | < 0.5 | > 32 | C#CCCC(=O)N1CCN(c2ccc(N3C[C@H](CNC(C)=O)OC3=O)cc2F)CC1 [Compound 8, N-[((5S)-3-{3-fluoro-4-[4-(4-pentynoyl)-1-piperazinyl]phenyl}-2-oxo-1,3-oxazolidin-5-yl)methyl]acetamide] |  |  |  |
| 4 (≈ 8.88 µM) | 2 (≈ 4.44 µM) | 16 (≈ 35.5 µM) | CC(=O)NC[C@H]1CN(c2ccc(N3CCN(CC#Cc4ccccc4)CC3)c(F)c2)C(=O)O1 [Compound 9, N-[((5S)-3-{3-fluoro-4-[4-(3-phenylprop-2-ynyl)piperazin-1-yl]phenyl}-2-oxo-1,3-oxazolidin-5-yl)methyl]acetamide] |  |  |  |
| 4 (≈ 7 µM) | 2 (≈ 3.5 µM) | 32 (≈ 56 µM) | CC(=O)NC[C@H]1CN(c2cc(F)c(N3CCN(C(=O)CCCC#Cc4ccc(CN)cc4)CC3)c(F)c2F)C(=O)O1 [Compound 10, N-({(5S)-3-[4-(4-{6-[4-(aminomethyl)phenyl]hex-5-ynoyl}piperazin-1-yl)-2,3,5-trifluorophenyl]-2-oxo-1,3-oxazolidin-5-yl}methyl)acetamide] |  |  |  |
| 4 (≈ 7 µM) | 2 (≈ 3.5 µM) | 16 (≈ 28 µM) | CC(=O)NC[C@H]1CN(c2cc(F)c(N3CCN(C(=O)CCCC#Cc4cccc(CN)c4)CC3)c(F)c2F)C(=O)O1 [Compound 11, N-({(5S)-3-[4-(4-{6-[3-(aminomethyl)phenyl]hex-5-ynoyl}piperazin-1-yl)-2,3,5-trifluorophenyl]-2-oxo-1,3-oxazolidin-5-yl}methyl)acetamide] |  |  |  |
| 16 | 2 | > 64 | CC(=O)NC[C@H]1CN(c2ccc(N3CCN(C(=O)CCCC#Cc4ccc(/C(N)=N/O)cc4)CC3)c(F)c2)C(=O)O1.Cl [Compound 12, N-[((5S)-3-{4-[4-(6-{4-[(Z)-amino(hydroxyimino)methyl]-phenyl}hex-5-ynoyl)piperazin-1-yl]-3-fluorophenyl}-2-oxo-1,3-oxazolidin-5-yl)methyl]-acetamide hydrochloride] |  |  |  |
|  |  |  | CC(=O)NC[C@H]1CN(c2ccc(N3CCN(C(=O)CCC#Cc4ccc(C[C@H](N)C(=O)O)cc4)CC3)c(F)c2)C(=O)O1 [Compound 13, 4-{5-[4-(4-{(5S)-5-[(acetylamino)methyl]-2-oxo-1,3-oxazolidin-3-yl}-2-fluorophenyl)piperazin-1-yl]-5-oxopent-1-ynyl}-L-phenylalanine] | > 64 | 64 (≈ 110 µM) | > 64 |
| 8 (≈ 15 µM) | 2 (≈ 3.76 µM) | > 64 | CC(=O)NC[C@H]1CN(c2ccc(N3CCN(C(=O)CCCC#Cc4cccc(C#N)c4)CC3)c(F)c2)C(=O)O1 [Compound 14, N-{[(5S)-3-(4-{4-[6-(3-cyanophenyl)hex-5-ynoyl]piperazin-1-yl}-3-fluorophenyl)-2-oxo-1,3-oxazolidin-5-yl]methyl}acetamide] |  |  |  |
| > 16 | 2 | > 16 | CC(=O)NC[C@H]1CN(c2ccc(N3CCN(C(=O)CCCC#Cc4ccc(/C(C)=N/O)cc4)CC3)c(F)c2)C(=O)O1 [Compound 15, N-[((5S)-3-{3-fluoro-4-[4-(6-{4-[(1E)-N-hydroxyethan-imidoyl]-phenyl}hex-5-ynoyl)piperazin-1-yl]phenyl}-2-oxo-1,3-oxazolidin-5-yl)methyl]-acetamide, HCl salt] |  |  |  |
| 16 (≈ 31 µM) | 2 (≈ 3.87 µM) | 16 (≈ 31 µM) | CCC(=O)NC[C@H]1CN(c2ccc(C3(C)CN(C(=O)CCCC#Cc4cccc(CN)c4)C3)cc2)C(=O)O1 [Compound 16, N-({(5S)-3-[4-(1-{6-[3-(aminomethyl)phenyl]hex-5-ynoyl}-3-methylazetidin-3-yl)phenyl]-2-oxo-1,3-oxazolidin-5-yl}methyl)propan-amide] |  |  |  |
| > 64 | 2 (≈ 3.65 µM) | > 64 | CC(=O)NC[C@H]1CN(c2ccc(N3CCN(C(=O)CCCC#Cc4ccc(C(C)=O)cc4)CC3)c(F)c2)C(=O)O1 [Compound 17, N-{[(5S)-3-(4-{4-[6-(4-acetylphenyl)hex-5-ynoyl]piperazin-1-yl}-3-fluorophenyl)-2-oxo-1,3-oxazolidin-5-yl]methyl}acetamide] |  |  |  |
| 16 (≈ 27.3 µM) | 2 (≈ 3.41 µM) | > 64 | CC(=O)NC[C@H]1CN(c2ccc(N3CCN(C(=O)CCCC#Cc4ccc(Cn5ccnc5)cc4)CC3)c(F)c2)C(=O)O1 [Compound 18, N-({(5S)-3-[3-fluoro-4-(4-{6-[4-(1H-imidazol-1-ylmethyl)phenyl]hex-5-ynoyl}piperazin-1-yl)phenyl]-2-oxo-1,3-oxazolidin-5-yl}methyl)acetamide] |  |  |  |
| 4 (≈ 7.28 µM) | 0.25 (≈ 0.455 µM) | 32 (≈ 58.2 µM) | CNCc1ccc(C#CCCCC(=O)N2CCN(c3ccc(N4C[C@H](CNC(C)=O)OC4=O)cc3F)CC2)cc1 [Compound 19, N-[((5S)-3-{3-fluoro-4-[4-(6-{4-[(methylamino)methyl]phenyl}hex-5-ynoyl)piperazin-1-yl]phenyl}-2-oxo-1,3-oxazolidin-5-yl)methyl]acetamide] |  |  |  |
| 4 (≈ 7.88 µM) | 2 (≈ 3.94 µM) | 64 (≈ 126 µM) | CC(=O)NC[C@H]1CN(c2ccc(N3CCN(C(=O)CCC#Cc4ccc(N)cc4)CC3)c(F)c2)C(=O)O1 [Compound 20, N-{[(5S)-3-(4-{4-[5-(4-aminophenyl)pent-4-ynoyl]piperazin-1-yl}-3-fluorophenyl)-2-oxo-1,3-oxazolidin-5-yl]methyl}acetamide] |  |  |  |
| 32 (≈ 53.9 µM) | 4 (≈ 6.74 µM) | > 64 | COC(=O)[C@@H](N)Cc1ccc(C#CCCC(=O)N2CCN(c3ccc(N4C[C@H](CNC(C)=O)OC4=O)cc3F)CC2)cc1 [Compound 21, methyl 4-{5-[4-(4-{(5S)-5-[(acetylamino)methyl]-2-oxo-1,3-oxazolidin-3-yl}-2-fluorophenyl)piperazin-1-yl]-5-oxopent-1-ynyl}-L-phenylalaninate] |  |  |  |
| 32 (≈ 60.8 µM) | 4 (≈ 7.6 µM) | 32 (≈ 60.8 µM) | CC(=O)NC[C@H]1CN(c2ccc(N3CCN(C(=O)CCC#Cc4c[nH]c(=O)[nH]c4=O)CC3)c(F)c2)C(=O)O1 [Compound 22, N-{[(5S)-3-(4-{4-[5-(2,4-dioxo-1,2,3,4-tetrahydropyrimidin-5-yl)pent-4-ynoyl]piperazin-1-yl}-3-fluorophenyl)-2-oxo-1,3-oxazolidin-5-yl]methyl}acetamide] |  |  |  |
| 4 (≈ 7.28 µM) | 0.25 (≈ 0.455 µM) | 32 (≈ 58.2 µM) | CC(=O)NC[C@H]1CN(c2ccc(N3CCN(C(=O)CCCCC#Cc4ccc(CN)cc4)CC3)c(F)c2)C(=O)O1 [Compound 23, N-({(5S)-3-[4-(4-{7-[4-(aminomethyl)phenyl]hept-6-ynoyl}piperazin-1-yl)-3-fluorophenyl]-2-oxo-1,3-oxazolidin-5-yl}methyl)acetamide] |  |  |  |
| 8 (≈ 14.9 µM) | 2 (≈ 3.73 µM) | > 64 | CC(=O)NC[C@H]1CN(c2ccc(N3CCN(C(=O)CCCCC#Cc4ccc(O)cc4)CC3)c(F)c2)C(=O)O1 [Compound 24, N-{[(5S)-3-(3-fluoro-4-{4-[7-(4-hydroxyphenyl)hept-6-ynoyl]piperazin-1-yl}phenyl)-2-oxo-1,3-oxazolidin-5-yl]methyl}acetamide] |  |  |  |
| 8 (≈ 14.9 µM) | 2 (≈ 3.73 µM) | > 64 | CC(=O)NC[C@H]1CN(c2ccc(N3CCN(C(=O)CCCCC#Cc4cccc(O)c4)CC3)c(F)c2)C(=O)O1 [Compound 25, N-{[(5S)-3-(3-fluoro-4-{4-[7-(3-hydroxyphenyl)hept-6-ynoyl]piperazin-1-yl}phenyl)-2-oxo-1,3-oxazolidin-5-yl]methyl}acetamide] |  |  |  |
